System: 817829-284-R-J1-PDC complex spheroids, viability
Test: Anticancer human tumor 817829-284-R-J1-PDC patient-derived colon adenocarcinoma cell line growth inhibition [GQUAD]
Details: for IC50: curve of first compound; for viability, T/C: stronger effect = lower value
Procedure, shortened: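 Multi-cell-type spheroids of tumor cells with HUVEC and mesenchymal stem cells, treated with drug combinations. Concentrations descend in half-log steps from near clinical Cmax, or from 10 microM where Cmax is unknown; viability read-out.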

[1] = second compound 0.0316 µM, first compound 0.0316 µM
[2] = second compound 0.0316 µM, first compound 0.1 µM
[3] = second compound 0.0316 µM, first compound 0.316 µM
[4] = second compound 0.0316 µM, first compound 1 µM
[5] = second compound 0.0316 µM, first compound 3.16 µM
[6] = second compound 0.0316 µM, first compound 10 µM
[7] = second compound 0.1 µM, first compound 0.0316 µM
[8] = second compound 0.1 µM, first compound 0.1 µM
[9] = second compound 0.1 µM, first compound 0.316 µM
[10] = second compound 0.1 µM, first compound 1 µM
[11] = second compound 0.1 µM, first compound 3.16 µM
[12] = second compound 0.1 µM, first compound 10 µM
[13] = second compound 0.316 µM, first compound 0.0316 µM
[14] = second compound 0.316 µM, first compound 0.1 µM
[15] = second compound 0.316 µM, first compound 0.316 µM
[16] = second compound 0.316 µM, first compound 1 µM
[17] = second compound 0.316 µM, first compound 3.16 µM
[18] = second compound 0.316 µM, first compound 10 µM
[19] = second compound 1 µM, first compound 0.0316 µM
[20] = second compound 1 µM, first compound 0.1 µM
[21] = second compound 1 µM, first compound 0.316 µM
[22] = second compound 1 µM, first compound 1 µM
[23] = second compound 1 µM, first compound 3.16 µM
[24] = second compound 1 µM, first compound 10 µM
[25] = second compound 3.16 µM, first compound 0.0316 µM
[26] = second compound 3.16 µM, first compound 0.1 µM
[27] = second compound 3.16 µM, first compound 0.316 µM
[28] = second compound 3.16 µM, first compound 1 µM
[29] = second compound 3.16 µM, first compound 3.16 µM
[30] = second compound 3.16 µM, first compound 10 µM
[31] = second compound 10 µM, first compound 0.0316 µM
[32] = second compound 10 µM, first compound 0.1 µM
[33] = second compound 10 µM, first compound 0.316 µM
[34] = second compound 10 µM, first compound 1 µM
[35] = second compound 10 µM, first compound 3.16 µM
[36] = second compound 10 µM, first compound 10 µM
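Also: spheroids exposed to agents for 7 days before readout.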
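For viability, T/C in this document: percent viability relative to DMSO vehicle control taken as 100%.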

Structure (SMILES): O=C(NO)c1cnc(N2CCN(S(=O)(=O)c3ccc4ccccc4c3)CC2)nc1 + Cc1[nH]c2ccc(F)cc2c1-c1nc2c3cccnc3c3ncccc3c2[nH]1
- IC50 (second compound 0.0316 µM): 0.166 µM
- IC50 (second compound 0.1 µM): 0.189 µM
- IC50 (second compound 0.316 µM): 0.195 µM
- IC50 (second compound 1 µM): 0.186 µM
- IC50 (second compound 3.16 µM): < 0.0316 µM
- IC50 (second compound 10 µM): < 0.0316 µM
- viability, T/C [1]: 97%
- viability, T/C [2]: 88.9%
- viability, T/C [3]: 0.76%
- viability, T/C [4]: 0.18%
- viability, T/C [5]: 0.1%
- viability, T/C [6]: 0.14%
- viability, T/C [7]: 101%
- viability, T/C [8]: 120%
- viability, T/C [9]: 1.55%
- viability, T/C [10]: 0.16%
- viability, T/C [11]: 0.08%
- viability, T/C [12]: 0.16%
- viability, T/C [13]: 101%
- viability, T/C [14]: 128%
- viability, T/C [15]: 3.53%
- viability, T/C [16]: 0.12%
- viability, T/C [17]: 0.08%
- viability, T/C [18]: 0.15%
- viability, T/C [19]: 118%
- viability, T/C [20]: 106%
- viability, T/C [21]: 1.91%
- viability, T/C [22]: 0.1%
- viability, T/C [23]: 0.08%
- viability, T/C [24]: 0.14%
- viability, T/C [25]: 9.69%
- viability, T/C [26]: 13.6%
- viability, T/C [27]: 0.27%
- viability, T/C [28]: 0.1%
- viability, T/C [29]: 0.08%
- viability, T/C [30]: 0.13%
- viability, T/C [31]: 5.27%
- viability, T/C [32]: 7.46%
- viability, T/C [33]: 0.18%
- viability, T/C [34]: 0.12%
- viability, T/C [35]: 0.17%
- viability, T/C [36]: 0.15%

Structure (SMILES): COc1cc(C2c3cc4c(cc3C(OC3OC5COC(C)OC5C(O)C3O)C3COC(=O)C23)OCO4)cc(OC)c1O (stereo unspecified) + CN(C)c1ccc(Nc2c3ccc(NC(=O)CCN4CCCC4)cc3nc3cc(NC(=O)CCN4CCCC4)ccc23)cc1
- IC50 (second compound 0.0316 µM): 0.378 µM
- IC50 (second compound 0.1 µM): 0.434 µM
- IC50 (second compound 0.316 µM): 0.375 µM
- IC50 (second compound 1 µM): 0.229 µM
- IC50 (second compound 3.16 µM): 0.227 µM
- IC50 (second compound 10 µM): 0.295 µM
- viability, T/C [1]: 103%
- viability, T/C [2]: 85.7%
- viability, T/C [3]: 35%
- viability, T/C [4]: 42.8%
- viability, T/C [5]: 32.1%
- viability, T/C [6]: 10.2%
- viability, T/C [7]: 97.5%
- viability, T/C [8]: 88.6%
- viability, T/C [9]: 34.5%
- viability, T/C [10]: 44.9%
- viability, T/C [11]: 33.9%
- viability, T/C [12]: 11%
- viability, T/C [13]: 92.7%
- viability, T/C [14]: 81.6%
- viability, T/C [15]: 37.7%
- viability, T/C [16]: 40.4%
- viability, T/C [17]: 33.3%
- viability, T/C [18]: 11.8%
- viability, T/C [19]: 101%
- viability, T/C [20]: 92.1%
- viability, T/C [21]: 33.1%
- viability, T/C [22]: 40.7%
- viability, T/C [23]: 32%
- viability, T/C [24]: 9.94%
- viability, T/C [25]: 95.4%
- viability, T/C [26]: 87.9%
- viability, T/C [27]: 34.3%
- viability, T/C [28]: 37%
- viability, T/C [29]: 30.7%
- viability, T/C [30]: 10.4%
- viability, T/C [31]: 86.9%
- viability, T/C [32]: 68.2%
- viability, T/C [33]: 37.1%
- viability, T/C [34]: 41.5%
- viability, T/C [35]: 27.3%
- viability, T/C [36]: 10%

Structure (SMILES): COc1ncnc(C2CC2)c1-c1ncc2cnn(Cc3ccc(-c4nc(C(F)(F)F)cn4C(C)C)cc3)c2n1 + Cc1cnc(CNC(=O)c2c(=O)c3ccc(N4CCCN(C)CC4)nc3n3c2sc2ccccc23)cn1
- IC50 (second compound 0.0316 µM): > 10 µM
- IC50 (second compound 0.1 µM): < 0.0316 µM
- IC50 (second compound 0.316 µM): < 0.0316 µM
- IC50 (second compound 1 µM): < 0.0316 µM
- IC50 (second compound 3.16 µM): < 0.0316 µM
- IC50 (second compound 10 µM): < 0.0316 µM
- viability, T/C [1]: 63.5%
- viability, T/C [2]: 51.9%
- viability, T/C [3]: 55.5%
- viability, T/C [4]: 43.7%
- viability, T/C [5]: 66%
- viability, T/C [6]: 64.1%
- viability, T/C [7]: 28.1%
- viability, T/C [8]: 31.1%
- viability, T/C [9]: 28.2%
- viability, T/C [10]: 29.5%
- viability, T/C [11]: 28.4%
- viability, T/C [12]: 33.2%
- viability, T/C [13]: 19.2%
- viability, T/C [14]: 26.4%
- viability, T/C [15]: 20.8%
- viability, T/C [16]: 25.4%
- viability, T/C [17]: 25.6%
- viability, T/C [18]: 22.8%
- viability, T/C [19]: 19.3%
- viability, T/C [20]: 22.8%
- viability, T/C [21]: 21.1%
- viability, T/C [22]: 20.8%
- viability, T/C [23]: 22.1%
- viability, T/C [24]: 18%
- viability, T/C [25]: 16.9%
- viability, T/C [26]: 18.9%
- viability, T/C [27]: 17.7%
- viability, T/C [28]: 19.4%
- viability, T/C [29]: 21.6%
- viability, T/C [30]: 18.1%
- viability, T/C [31]: 0.12%
- viability, T/C [32]: 0.17%
- viability, T/C [33]: 0.18%
- viability, T/C [34]: 0.16%
- viability, T/C [35]: 0.21%
- viability, T/C [36]: 0.22%

From PubChem BioAssay AID2060503 (Molecular Pharmacology Branch, DTP, NCI, 2025)
